{"source": "paper PMC4031649", "about": "(Cell reports, 2014)", "molecular_target": "T1, GGCT (Homo sapiens, UniProt O75223)", "T1 sequence (O75223 1-188)": "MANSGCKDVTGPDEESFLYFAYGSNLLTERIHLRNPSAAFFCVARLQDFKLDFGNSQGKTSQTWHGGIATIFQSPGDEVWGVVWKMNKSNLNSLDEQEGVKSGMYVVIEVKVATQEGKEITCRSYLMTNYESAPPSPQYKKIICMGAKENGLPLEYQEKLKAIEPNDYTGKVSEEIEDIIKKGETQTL", "assay": "thin layer chromatography, ninhydrin", "type": "biochemical", "conditions": "glycine release", "data": [{"smiles": "N[C@@H](CCC(=O)NCC(=O)O)C(=O)O", "note": "[γ-glutamyl-glycine]", "values": [{"measurement": "thin layer chromatography, ninhydrin", "value": "Both GGCT and Botch release glycine by cleavage of γ-glutamyl-glycine"}]}]}
